Columns and labels:
BRD1 = target: T1, BRD1 (Homo sapiens, UniProt O95696); assay: Bromodomain binding assay: BRD1
T1 construct: T7 phage strains displaying bromodomains were grown in parallel; made in house; host or cells: E. coli host derived from BL21, infected with T7 phage
Protocol: T7 phage strains displaying bromodomains were grown in parallel in 24-well blocks in an E. coli host derived from the BL21 strain. E. coli were grown to log-phase and infected with T7 phage from a frozen stock (multiplicity of infection=0.4) and incubated with shaking at 32° C. until lysis (90-150 minutes). The lysates were centrifuged (5,000×g) and filtered (0.2 μm) to remove cell debris. […] The liganded beads were blocked with excess biotin and washed with blocking buffer (SeaBlock (Pierce), 1% BSA, 0.05 Tween 20, 1 mM DTT) to remove unbound ligand and to reduce non-specific phage binding. […] Test compounds (T62 and 46) were prepared as 1000× stocks in 100% DMSO and subsequently diluted 1:10 in monoethylene glycol (MEG) to create stocks at 100× the screening concentration (resulting stock solution is 10% DMSO/90% MEG). The compounds were then diluted directly into the assays such that the final concentration of DMSO and MEG were 0.1% and 0.9%, respectively. All reactions were performed in polystyrene 96-well plates in a final volume of 0.135 ml. […] The bromodomain concentration in the eluates was measured by qPCR. Compounds were assayed for binding activity against a panel of 40 bromodomain-containing proteins.

[1] = tested on: DNFB-induced ear inflammation mouse model; assay: DNFB-induced ear inflammation mouse model: cytokine concentrations in ear tissue; type: in vivo, mouse (Balb/c)
Protocol: In vivo T-cell mediated immune response was examined in a mouse model of CHS using the hapten dinitrofluorobenzene (DNFB) as the induction agent. […] On Days 0 and 1 (sensitization), 20 μL of 0.5% v/v DNFB in acetone:olive oil (4:1) was applied to each hindpaw of 8 week old male mice (Balb/c, Charles River Laboratories; 10 mice per group unless otherwise noted). On Day 5 (elicitation) 10 μL of 0.2% v/v DNFB in acetone: olive oil (4:1) was applied to the dorsal surface of the right ear of each animal; 10 μL of acetone: olive oil (4:1) was applied to the dorsal surface of the left ear as control. Treatments were administered by group as indicated in the table below; on days when DNFB was used, the QD and the morning dose of BID as appropriate were administered 30 minutes-1 hr. prior to DNFB application. […] Approximately 24 hours after elicitation (Day 6), a 7 mm tissue punch from the central portion of both ears was collected and wet weights measured. The primary functional assessment was the difference in wet weights of the right (DNFB) vs. left (vehicle) ears compared to the vehicle treatment (Vehicle1-S) as an indicator of inflammation (Table 17). Ear tissue punches were flash frozen, stored at −70° C. and analyzed for cytokines (see below).
Cytokine concentrations after DNFB induction and treatment were analyzed in the weighed and flash frozen tissues of the right (DNFB) and left (control) 7 mm ear punches. The ear tissues were stored at −70° C. until prepared for analysis as follows. Left or right ear tissues from the same treatment group were pooled and crushed with mortar and pestle under liquid nitrogen. Tissue representing 7-8 ear punches by weight was homogenized in Buffer A (50 mM HEPES pH 7.4, 100 mM NaCl) containing 1 tablet EDTA-free Protease Inhibitor (Thermo Fisher Scientific, Rockford, Ill.) per 10 mL, 1× Phosphatase Inhibitor Cocktail II (AG Scientific, San Diego, Calif.), and 1 mM PMSF (Sigma, St. Louis, Mo.). Homogenization was performed in Lysing Matrix D tubes (MP Biomedicals, Solon, Ohio), using the FastPrep-24 instrument (MP Biomedicals) at a speed setting of 6 for 4 cycles of 30 seconds, with cooling on ice in between cycles. The tubes were then centrifuged at 1,000×g for 10 min at 4° C. Supernatant was collected and briefly sonicated using the Microson probe sonicator at setting 3 (Misonix, Farmingdale, N.Y.) before centrifuging again at 10,000×g for 10 min at 4° C. The supernatant was ultracentrifuged at 100,000×g for 1 h at 4° C. in the Optima Max-E (Beckman Coulter, Indianapolis, Ind.) to separate soluble and membrane protein fractions. The soluble (supernatant) fraction was collected and protein concentrations determined using the Dc protein kit (Bio-Rad, Hercules, Calif.). Soluble ear proteins were analyzed in triplicate for cytokine response at a final protein concentration of 4 mg/ml using the Bio-Plex Pro Mouse Cytokine 23-Plex panel (Bio-Rad) as per manufacturer's protocols. Magnetic beads were read on the Bio-Plex MAGPIX multiplex reader instrument using the accompanying xPONENT 4.2 acquisition software (Bio-Rad Laboratories, Hercules, Calif.). Data were analyzed via the Bio-Plex Manager software v6.1 (Bio-Rad Laboratories). Response was calculated as a percentage of the cytokine concentrations measured in the right (DNFB) ears of vehicle 1 dosed (S regimen, i.e. dosed Day 0-5) mice (Table 18).

T1 sequence (O95696 562-666 limits assumed, species assumed): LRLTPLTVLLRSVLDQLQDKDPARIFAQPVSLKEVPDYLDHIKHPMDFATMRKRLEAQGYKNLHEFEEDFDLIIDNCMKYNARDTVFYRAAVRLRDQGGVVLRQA

CCOc1cc(C(=O)N[C@H]2CC[C@H](O)CC2)ccc1Nc1cc2c(cn1)N(C)C(=O)c1ccccc1N2C [Compound T62]
Kd (BRD1): > 20 µM

CCOc1cc(C(=O)N2CCCN(C)CC2)ccc1Nc1cc2c(cn1)N(C)C(=O)c1ccccc1N2C [Compound 8]
G-CSF: Mean % Cytokine Concentration in DNFB Treated Right Ears versus Vehicle 1-Dosed (S) Mice ([1]; 25 mg/kg, regimen E): 68% | GM-CSF: Mean % Cytokine Concentration in DNFB Treated Right Ears versus Vehicle 1-Dosed (S) Mice ([1]; 25 mg/kg, regimen E): 40% | IFN-γ: Mean % Cytokine Concentration in DNFB Treated Right Ears versus Vehicle 1-Dosed (S) Mice ([1]; 25 mg/kg, regimen E): 52% | IL-1α: Mean % Cytokine Concentration in DNFB Treated Right Ears versus Vehicle 1-Dosed (S) Mice ([1]; 25 mg/kg, regimen E): 88% | IL-1β: Mean % Cytokine Concentration in DNFB Treated Right Ears versus Vehicle 1-Dosed (S) Mice ([1]; 25 mg/kg, regimen E): 56% | IL-3: Mean % Cytokine Concentration in DNFB Treated Right Ears versus Vehicle 1-Dosed (S) Mice ([1]; 25 mg/kg, regimen E): 67% | IL-5: Mean % Cytokine Concentration in DNFB Treated Right Ears versus Vehicle 1-Dosed (S) Mice ([1]; 25 mg/kg, regimen E): 37% | IL-6: Mean % Cytokine Concentration in DNFB Treated Right Ears versus Vehicle 1-Dosed (S) Mice ([1]; 25 mg/kg, regimen E): 58% | IL-12 (p40): Mean % Cytokine Concentration in DNFB Treated Right Ears versus Vehicle 1-Dosed (S) Mice ([1]; 25 mg/kg, regimen E): 79% | IL-13: Mean % Cytokine Concentration in DNFB Treated Right Ears versus Vehicle 1-Dosed (S) Mice ([1]; 25 mg/kg, regimen E): 74% | IL-17A: Mean % Cytokine Concentration in DNFB Treated Right Ears versus Vehicle 1-Dosed (S) Mice ([1]; 25 mg/kg, regimen E): 69% | KC: Mean % Cytokine Concentration in DNFB Treated Right Ears versus Vehicle 1-Dosed (S) Mice ([1]; 25 mg/kg, regimen E): 39% | MCP-1: Mean % Cytokine Concentration in DNFB Treated Right Ears versus Vehicle 1-Dosed (S) Mice ([1]; 25 mg/kg, regimen E): 44% | MIP-1α: Mean % Cytokine Concentration in DNFB Treated Right Ears versus Vehicle 1-Dosed (S) Mice ([1]; 25 mg/kg, regimen E): 62% | MIP-1β: Mean % Cytokine Concentration in DNFB Treated Right Ears versus Vehicle 1-Dosed (S) Mice ([1]; 25 mg/kg, regimen E): 60% | RANTES: Mean % Cytokine Concentration in DNFB Treated Right Ears versus Vehicle 1-Dosed (S) Mice ([1]; 25 mg/kg, regimen E): 66% | TNF-α: Mean % Cytokine Concentration in DNFB Treated Right Ears versus Vehicle 1-Dosed (S) Mice ([1]; 25 mg/kg, regimen E): 53% | G-CSF: Mean % Cytokine Concentration in DNFB Treated Right Ears versus Vehicle 1-Dosed (S) Mice ([1]; 60 mg/kg, regimen E): 50% | GM-CSF: Mean % Cytokine Concentration in DNFB Treated Right Ears versus Vehicle 1-Dosed (S) Mice ([1]; 60 mg/kg, regimen E): 48% | IFN-γ: Mean % Cytokine Concentration in DNFB Treated Right Ears versus Vehicle 1-Dosed (S) Mice ([1]; 60 mg/kg, regimen E): 58% | IL-1α: Mean % Cytokine Concentration in DNFB Treated Right Ears versus Vehicle 1-Dosed (S) Mice ([1]; 60 mg/kg, regimen E): 188% | IL-1β: Mean % Cytokine Concentration in DNFB Treated Right Ears versus Vehicle 1-Dosed (S) Mice ([1]; 60 mg/kg, regimen E): 62% | IL-3: Mean % Cytokine Concentration in DNFB Treated Right Ears versus Vehicle 1-Dosed (S) Mice ([1]; 60 mg/kg, regimen E): 77% | IL-5: Mean % Cytokine Concentration in DNFB Treated Right Ears versus Vehicle 1-Dosed (S) Mice ([1]; 60 mg/kg, regimen E): 57% | IL-6: Mean % Cytokine Concentration in DNFB Treated Right Ears versus Vehicle 1-Dosed (S) Mice ([1]; 60 mg/kg, regimen E): 61% | IL-12 (p40): Mean % Cytokine Concentration in DNFB Treated Right Ears versus Vehicle 1-Dosed (S) Mice ([1]; 60 mg/kg, regimen E): 88% | IL-13: Mean % Cytokine Concentration in DNFB Treated Right Ears versus Vehicle 1-Dosed (S) Mice ([1]; 60 mg/kg, regimen E): 85% | IL-17A: Mean % Cytokine Concentration in DNFB Treated Right Ears versus Vehicle 1-Dosed (S) Mice ([1]; 60 mg/kg, regimen E): 68% | KC: Mean % Cytokine Concentration in DNFB Treated Right Ears versus Vehicle 1-Dosed (S) Mice ([1]; 60 mg/kg, regimen E): 29% | MCP-1: Mean % Cytokine Concentration in DNFB Treated Right Ears versus Vehicle 1-Dosed (S) Mice ([1]; 60 mg/kg, regimen E): 47% | MIP-1α: Mean % Cytokine Concentration in DNFB Treated Right Ears versus Vehicle 1-Dosed (S) Mice ([1]; 60 mg/kg, regimen E): 62% | MIP-1β: Mean % Cytokine Concentration in DNFB Treated Right Ears versus Vehicle 1-Dosed (S) Mice ([1]; 60 mg/kg, regimen E): 44% | RANTES: Mean % Cytokine Concentration in DNFB Treated Right Ears versus Vehicle 1-Dosed (S) Mice ([1]; 60 mg/kg, regimen E): 53% | TNF-α: Mean % Cytokine Concentration in DNFB Treated Right Ears versus Vehicle 1-Dosed (S) Mice ([1]; 60 mg/kg, regimen E): 81% | G-CSF: Mean % Cytokine Concentration in DNFB Treated Right Ears versus Vehicle 1-Dosed (S) Mice ([1]; 60 mg/kg, regimen S): 36% | GM-CSF: Mean % Cytokine Concentration in DNFB Treated Right Ears versus Vehicle 1-Dosed (S) Mice ([1]; 60 mg/kg, regimen S): 52% | IFN-γ: Mean % Cytokine Concentration in DNFB Treated Right Ears versus Vehicle 1-Dosed (S) Mice ([1]; 60 mg/kg, regimen S): 46% | IL-1α: Mean % Cytokine Concentration in DNFB Treated Right Ears versus Vehicle 1-Dosed (S) Mice ([1]; 60 mg/kg, regimen S): 136% | IL-1β: Mean % Cytokine Concentration in DNFB Treated Right Ears versus Vehicle 1-Dosed (S) Mice ([1]; 60 mg/kg, regimen S): 52% | IL-3: Mean % Cytokine Concentration in DNFB Treated Right Ears versus Vehicle 1-Dosed (S) Mice ([1]; 60 mg/kg, regimen S): 61% | IL-5: Mean % Cytokine Concentration in DNFB Treated Right Ears versus Vehicle 1-Dosed (S) Mice ([1]; 60 mg/kg, regimen S): 37% | IL-6: Mean % Cytokine Concentration in DNFB Treated Right Ears versus Vehicle 1-Dosed (S) Mice ([1]; 60 mg/kg, regimen S): 32% | IL-12 (p40): Mean % Cytokine Concentration in DNFB Treated Right Ears versus Vehicle 1-Dosed (S) Mice ([1]; 60 mg/kg, regimen S): 73% | IL-13: Mean % Cytokine Concentration in DNFB Treated Right Ears versus Vehicle 1-Dosed (S) Mice ([1]; 60 mg/kg, regimen S): 75% | IL-17A: Mean % Cytokine Concentration in DNFB Treated Right Ears versus Vehicle 1-Dosed (S) Mice ([1]; 60 mg/kg, regimen S): 38% | KC: Mean % Cytokine Concentration in DNFB Treated Right Ears versus Vehicle 1-Dosed (S) Mice ([1]; 60 mg/kg, regimen S): 35% | MCP-1: Mean % Cytokine Concentration in DNFB Treated Right Ears versus Vehicle 1-Dosed (S) Mice ([1]; 60 mg/kg, regimen S): 43% | MIP-1α: Mean % Cytokine Concentration in DNFB Treated Right Ears versus Vehicle 1-Dosed (S) Mice ([1]; 60 mg/kg, regimen S): 57% | MIP-1β: Mean % Cytokine Concentration in DNFB Treated Right Ears versus Vehicle 1-Dosed (S) Mice ([1]; 60 mg/kg, regimen S): 52% | RANTES: Mean % Cytokine Concentration in DNFB Treated Right Ears versus Vehicle 1-Dosed (S) Mice ([1]; 60 mg/kg, regimen S): 51% | TNF-α: Mean % Cytokine Concentration in DNFB Treated Right Ears versus Vehicle 1-Dosed (S) Mice ([1]; 60 mg/kg, regimen S): 65%

— patent US20170008888A1 (KYORIN PHARMACEUTICAL CO., LTD., priority 2014, published 2017)
